Experimental data reported in patent publication US9487476B2, “Catechol diethers as potent anti-HIV agents” (priority 2011, dated 2016).
Like-named read-outs stand apart in the source and are kept apart here.

Experiments:
[1] = test system: WT HIV-1 (IIIB strain); assay: Anti-HIV-1 activity, protection of infected MT-2 cells (MTT); format: cell-based
[2] = Cytotoxicity, inhibition of MT-2 cell growth; format: cell-based, human; settings: human
[3] = test system: HIV-1 variant containing the Y181C (Tyr181Cys) mutation; assay: Anti-HIV-1 activity against variant strain in MT-2 cells (MTT); format: cell-based
[4] = test system: HIV-1 Y181C variant; settings: literature; read-out: reported anti-HIV activity, Y181C; cited from earlier work
[5] = test system: HIV-1 K103N/Y181C variant; settings: literature; read-out: reported anti-HIV activity, K103N/Y181C; cited from earlier work
[6] = test system: MT-2 human T-cells; assay: Cytotoxicity, inhibition of MT-2 cell growth; format: cell-based
[7] = test system: WT HIV-1; settings: Table 5, literature data (ref. 28), MT4 cells; cited from earlier work
[8] = test system: HIV-1 Y181C variant; settings: Table 5, literature data (ref. 28), MT4 cells; cited from earlier work
[9] = test system: HIV-1 K103N/Y181C variant; settings: Table 5, literature data (ref. 28), MT4 cells; cited from earlier work
[10] = test system: MT4 cells; settings: Table 5, literature data (ref. 28); cited from earlier work
[11] = test system: WT HIV-1; settings: literature; read-out: reported anti-HIV activity, WT HIV-1; cited from earlier work
[12] = test system: HIV-1 variant containing the K103N/Y181C mutations; assay: Anti-HIV-1 activity against double-mutant strain in MT-2 cells (MTT); format: cell-based
[13] = Human immunodeficiency virus 1, IIIB, MT2, read-out: Anti-HIV Activity (EC50)
[14] = Human immunodeficiency virus 1, IIIB, MT2, running text, read-out: EC50 against WT HIV-1
[15] = Human immunodeficiency virus 1, MT2, read-out: EC50 Y181C
[16] = Table 4, catechol diether derivatives, MT-2 cells, read-out: Anti-HIV-1 Activity (EC50)
[17] = Table 5, MT-2 cells, read-out: EC50 WT
[18] = Table 5, MT-2 cells, read-out: EC50 Y181C
[19] = Table 5, MT-2 cells, read-out: EC50 K103N/Y181C
[20] = Table 4, MT-2 cells, read-out: Cytotoxicity (CC50)
[21] = Table 5, MT-2 cells, read-out: Average Cytotoxicity (CC50)
[22] = Human immunodeficiency virus 1, MT2, read-out: EC50 Y181C variant
[23] = Human immunodeficiency virus 1, MT2, read-out: EC50 K103N/Y181C
[24] = Human immunodeficiency virus 1, MT2, read-out: EC50 K103N/Y181C variant

N#Cc1cc2cc(Oc3ccccc3OCCn3ccc(=O)[nH]c3=O)ccn2c1 [JLJ555]
EC50 [1, 13]: 0.38 nM | CC50 [2]: > 100000 nM

CNc1ccc(Oc2cc(Cl)cc(/C=C/C#N)c2)c(OCCn2ccc(=O)[nH]c2=O)c1 [Compound 43, (E)-3-(3-chloro-5-(2-(2-(2,4-dioxo-3,4-dihydropyrimidin-1(2H)-yl)ethoxy)-4-(methylamino)phenoxy)phenyl)acrylonitrile]
EC50 [1, 14]: 20 nM | EC50 [3, 15]: 2800 nM | CC50 [2]: 30000 nM

Cc1cc(C)cc(Oc2c(CSCc3ccco3)c(C)[nH]c(=O)c2I)c1 [Compound 3]
EC50 [4]: < 10 nM | EC50 [5]: < 10 nM

Cc1cc(/C=C/C#N)cc(C)c1Nc1ccnc(Nc2ccc(C#N)cc2)n1 [rilpivirine, 4-[[4-[[4-[(1E)-2-cyanoethenyl]-2,6-dimethylphenyl]amino]-2-pyrimidinyl]amino]benzonitrile]
CC50 ([6]; human): > 1000 nM | EC50 [7]: 0.4 nM | EC50 [8]: 1.3 nM | EC50 [9]: 1 nM | CC50 [10]: 8000 nM

O=C1Nc2ccc(Cl)cc2[C@@](C#CC2CC2)(C(F)(F)F)O1 [efavirenz]
EC50 [7]: 1.4 nM | EC50 [8]: 2 nM | EC50 [9]: 37 nM

N#Cc1cc(Cl)cc(Oc2cc(OCc3n[nH]c4ccccc34)ccc2Cl)c1 [Compound 72]
EC50 [11]: 4.7 nM | EC50 [4]: 13.8 nM | EC50 [5]: 141 nM

O=c1ccn(CCOc2ccccc2Oc2ccc3[nH]ccc3c2)c(=O)[nH]1 [JLJ547]
EC50 [1, 13]: 85 nM | CC50 [2]: 53000 nM

N#C/C=C/c1cc(Cl)cc(Oc2ccc(F)cc2OCCn2ccc(=O)[nH]c2=O)c1 [JLJ516]
EC50 [1, 16]: 0.77 nM | EC50 [1, 17]: 0.77 nM | EC50 [3, 18]: 60 nM | EC50 [12, 19]: 250 nM | CC50 [6, 20]: 62000 nM | CC50 [6, 21]: 63000 nM

Cc1cc(C#N)cc(C)c1Oc1nc(Nc2ccc(C#N)cc2)nc(N)c1Br [etravirine]
EC50 [8]: 7 nM | EC50 [9]: 4 nM

Cc1cc2cc(Oc3cc(Cl)ccc3OCCn3ccc(=O)[nH]c3=O)ccc2o1 [JLJ538]
EC50 [1, 13]: 25 nM | CC50 [2]: 8000 nM

N#C/C=C/c1cc(Cl)cc(Oc2ccc(Cl)cc2OCCn2ccc(=O)[nH]c2=O)c1 [Compound 42, (E)-3-(3-chloro-5-(4-chloro-2-(2-(2,4-dioxo-3,4-dihydropyrimidin-1(2H)-yl)ethoxy)phenoxy)phenyl)acrylonitrile]
therapeutic index ([1]; CC50 towards human T-cells vs WT EC50): > 180,000 | EC50 ([1]; Human immunodeficiency virus 1, IIIB, MT2, read-out: EC50, initial WT assay): 0.024 nM | EC50 ([1]; Human immunodeficiency virus 1, IIIB, MT2, running text, side-by-side re-assay, read-out: EC50 against WT HIV-1): 0.055 nM | EC50 [3, 15]: 49 nM | EC50 [3, 22]: 49 nM | EC50 [12, 23]: 220 nM | EC50 [12, 24]: 220 nM | CC50 [2]: 10000 nM

N#Cc1cc(Cl)cc(Oc2c(Cl)ccc(Cc3n[nH]c4nnccc34)c2F)c1 [Compound 73]
EC50 [11]: 1 nM | EC50 [5]: 4 nM

N#Cc1cc(Cl)cc(Oc2ccc(Cl)cc2OCCn2cc(Cl)c(=O)[nH]c2=O)c1 [Compound 27, 3-chloro-5-(4-chloro-2-(2-(5-chloro-2,4-dioxo-3,4-dihydropyrimidin-1(2H)-yl)ethoxy)phenoxy)benzonitrile]
EC50 [1, 14]: 17 nM | ratio between variant and WT activities (Y181C/WT) [3]: 14 fold | EC50 [3, 15]: 240 nM | EC50 [3, 22]: 240 nM | ratio between variant and WT activities (K103N/Y181C / WT) [12]: 34 fold | EC50 [12, 23]: 570 nM | EC50 [12, 24]: 570 nM | CC50 ([6]; human): 21000 nM

N#C/C=C/c1cc(Cl)cc(Oc2ccccc2OCCn2ccc(=O)[nH]c2=O)c1 [JLJ532]
EC50 [1, 16]: 0.31 nM | EC50 [1, 17]: 0.31 nM | EC50 [3, 18]: 46 nM | EC50 [12, 19]: 24 nM | CC50 [6, 20]: 18000 nM | CC50 [6, 21]: 11000 nM

N#C/C=C/c1cc(F)cc(Oc2ccc(Cl)cc2OCCn2ccc(=O)[nH]c2=O)c1 [JLJ505]
EC50 [1, 16]: 3.2 nM | EC50 [1, 17]: 3.2 nM | EC50 [3, 18]: 150 nM | EC50 [12, 19]: 900 nM | CC50 [6, 20]: > 48000 nM | CC50 [6, 21]: ≥ 48000 nM

N#C/C=C/c1cc(F)cc(Oc2ccccc2OCCn2ccc(=O)[nH]c2=O)c1 [JLJ510]
EC50 [1, 16]: 0.9 nM | EC50 [1, 17]: 0.9 nM | EC50 [3, 18]: 80 nM | EC50 [12, 19]: 75 nM | CC50 [6, 20]: 70000 nM | CC50 [6, 21]: 85000 nM

N#C/C=C/c1cc(F)cc(Oc2ccc(F)cc2OCCn2ccc(=O)[nH]c2=O)c1 [JLJ506]
EC50 [1, 16]: 0.342 nM | EC50 [1, 17]: 0.342 nM | EC50 [3, 18]: 16 nM | EC50 [12, 19]: 85 nM | CC50 [6, 20]: > 45000 nM | CC50 [6, 21]: ≥ 45000 nM

O=c1ccn(CCOc2ccc(Cl)cc2Oc2ccc3occc3c2)c(=O)[nH]1 [JLJ539]
EC50 [1, 13]: 800 nM | CC50 [2]: 19000 nM

O=c1ccn(CCOc2ccc(Cl)cc2Oc2ccc3ccoc3c2)c(=O)[nH]1 [JLJ552]
EC50 [1, 13]: 900 nM | CC50 [2]: 50000 nM

Cc1cc2cc(Oc3ccccc3OCCn3ccc(=O)[nH]c3=O)ccn2c1 [JLJ550]
EC50 [1, 13]: 50 nM | CC50 [2]: 9000 nM
